The record followed here is patent US8937078B2, “Quinazolinones as prolyl hydroxylase inhibitors” (Janssen Pharmaceutica NV, priority 2009, dated 2015).

Entries after “also recorded” stand apart in the source; their conditions may differ.

One series has as its target T1, human PHD2 (PHD2181-417) (Homo sapiens, UniProt Q9GZT9).
T1 construct: Smt (SUMO) tag (cleaved yes); made in house; host or cells: E. coli BL21 (pBAD vector)
Kind of series: PHD enzymatic assay ([14C]-succinic acid production). The class given is biochemical. The conditions noted are these: PHD2181-417, HIF-1α peptide 10 μM, average of results; read-out: Enzyme pIC50 (converted). Put shortly: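 Activity measured as [14C]-succinic acid formed from [5-14C]-2-oxoglutarate over 10 minutes, with peptide substrate at 10 μM, in Tris-HCl pH 7.5 buffer containing catalase, DTT and ascorbate. Unreacted oxoglutarate removed by DNP derivatisation; supernatant beta-counted.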

Series [1] in a line: Canine study, histological analysis (single dose escalation then repeat dose). The class given is in vivo. Also noted: key to Histology: Stomach / Histology: Testis/Epididymis / Histology: Bone Marrow / Histology: Lung / Histology: Heart / Histology: Test/Epididymis / Histology: Kidney: NSL: No Significant Lesion. The conditions noted are these: oral by stomach tube. How it is done: Various animal models are assessed for histological analysis. In one example, a canine study was used to assess the effect of 1-[6-(2,6-dimethyl-phenoxy)-7-fluoro-4-oxo-3,4-dihydro-quinazolin-2-yl]-1H-pyrazole-4-carboxylic acid when administered orally by stomach tube in a Single Dose Escalation (SDE) phase, and then subsequently for up to 5 days during the Repeat Dose (RD) phase.

A further series has as its system Hep-3B cells. Kind of series: Cellular assay: erythropoietin secretion in Hep-3B cells. The class given is cell-based, human. The conditions noted are these: Homo sapiens, Hep3B, 100 μM compound, 24 hours, percent of EPO secretion relative to assay control compound 7-[(4-Chloro-phenyl)-(5-methyl-isoxazol-3-ylamino)-methyl]-quinolin-8-ol, read-out: Cellular % EPO Stimulation. Put shortly: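 Hep-3B cells in DMEM with 10% FBS, treated 24 h after plating with compounds at 100 μM final for a further 24 h. Secreted EPO in supernatant measured by MSD electrochemiluminescence sandwich immunoassay with anti-EPO detection antibody.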

T1 sequence (Q9GZT9 181-417): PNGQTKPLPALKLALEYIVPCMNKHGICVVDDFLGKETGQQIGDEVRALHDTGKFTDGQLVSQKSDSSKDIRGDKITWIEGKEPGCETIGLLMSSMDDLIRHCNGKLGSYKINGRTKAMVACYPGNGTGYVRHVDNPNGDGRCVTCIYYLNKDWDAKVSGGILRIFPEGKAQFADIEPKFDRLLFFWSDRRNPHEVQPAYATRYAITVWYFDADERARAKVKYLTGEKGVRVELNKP

As for `Cc1cccc(C)c1Oc1cc2c(=O)[nH]c(-n3cc(C(=O)O)cn3)nc2cc1F` [Example 51, 1-[6-(2,6-Dimethyl-phenoxy)-7-fluoro-4-oxo-3,4-dihydro-quinazolin-2-yl]-1H-pyrazole-4-carboxylic acid], on human PHD2 (PHD2181-417), the IC50 was 25.1 nM. Moreover, in series [1] (10 mg/kg/day-1001 (Male)), the “Histology: Bone Marrow” value is “NSL”; the “Histology: Heart” value is given as “NSL”; the “Histology: Kidney” value is listed as “Slight, bilateral, acute multi-focal; also recorded: Slight, pelvic mineral deposition (right”; the “Histology: Liver” value is given as “Slight, acute portal inflammation”. Besides, in series [1] (10 mg/kg/day-1001 (Male)), the “Histology: Lung” value is “NSL”; the “Histology: Spleen” value is “Mild EMH, with mild, increased; also recorded: Slight, intra-macrophage brown pigment”; the “Histology: Stomach” value is on record as “NSL”; the “Histology: Testis/Epididymis” value was “NSL”. For the same compound, in series [1] (10 mg/kg/day-1501 (female)), the “Histology: Bone Marrow” value is “NSL”; the “Histology: Heart” value is given as “NSL”; the “Histology: Kidney” value is listed as “NSL”; the “Histology: Liver” value is reported as “Slight, acute portal inflammation”. Besides, in series [1] (10 mg/kg/day-1501 (female)), the “Histology: Lung” value is reported as “NSL”; the “Histology: Spleen” value is on record as “Mild EMH, with mild, increased; also recorded: Slight, intra-macrophage brown”; the “Histology: Stomach” value is “NSL”. Further, in series [1] (45 mg/kg/day-2001 (Male)), the “Histology: Bone Marrow” value is listed as “BSL”; the “Histology: Heart” value is “NSL”; the “Histology: Kidney” value was “Slight, bilateral, acute multi-focal; also recorded: Multiple cysts with slight interstitial; also recorded: Slight, renal papillary mineralization”; the “Histology: Liver” value was “Mild, acute central-lobular inflammation”. Further, in series [1] (45 mg/kg/day-2001 (Male)), the “Histology: Lung” value is reported as “NSL”; the “Histology: Spleen” value is “Mild EMH; also recorded: Mild, increased megkaryocytes; also recorded: Slight intra-macrophage brown pigment”; the “Histology: Stomach” value was “NSL”; the “Histology: Test/Epididymis” value is recorded as “NSL”. In series [1] (45 mg/kg/day-2501(female)), the “Histology: Bone Marrow” value was “NSL”; the “Histology: Kidney” value is listed as “Slight, bilateral, acute-multi-focal; also recorded: Slight tubular vacuolization”; the “Histology: Liver” value is “Mild bile duct hyperplasia; also recorded: Multifocal portal tract thrombosis; also recorded: Slight, Kupffer cell brown pigment”; the “Histology: Lung” value is reported as “NSL”. In series [1] (45 mg/kg/day-2501(female)), the “Histology: Spleen” value is reported as “Mild EMH; also recorded: Mild, increased megkaryocytes; also recorded: Slight intra-macrophage brown” and the “Histology: Stomach” value is “NSL”. For the same compound, the Emax at 100 µM in the series with Hep-3B cells turned out to be 100%.
As to `O=C(O)c1cnn(-c2nc3ccc(-c4ccccc4Cl)cc3c(=O)[nH]2)c1` [Example 192, 1-[6-(2-Chloro-phenyl)-4-oxo-3,4-dihydro-quinazolin-2-yl]-1H-pyrazole-4-carboxylic acid], the IC50 on human PHD2 (PHD2181-417) was 31.6 nM. The Emax at 100 µM in the series on Hep-3B cells amounted to 87%.
On the same counts, the results for `O=C(O)c1cnn(-c2nc3ccc(-c4cccc(Cl)c4)cc3c(=O)[nH]2)c1` [Example 193, 1-[6-(3-Chloro-phenyl)-4-oxo-3,4-dihydro-quinazolin-2-yl]-1H-pyrazole-4-carboxylic acid] are 31.6 nM and 141%.
With `O=C(O)c1cnn(-c2nc3ccc(-c4ccc(Cl)cc4)cc3c(=O)[nH]2)c1` [Example 194, 1-[6-(4-Chloro-phenyl)-4-oxo-3,4-dihydro-quinazolin-2-yl]-1H-pyrazole-4-carboxylic acid], the IC50 at human PHD2 (PHD2181-417) is 20 nM. Besides, the Emax at 100 µM in the series with Hep-3B cells came to 62%.
As for `O=C(O)c1cnn(-c2nc3ccc(-c4ccccc4F)cc3c(=O)[nH]2)c1` [Example 195, 1-[6-(2-Fluoro-phenyl)-4-oxo-3,4-dihydro-quinazolin-2-yl]-1H-pyrazole-4-carboxylic acid], the IC50 at human PHD2 (PHD2181-417) is 25.1 nM. The Emax at 100 µM in the series with Hep-3B cells was 100%.
Taken in the same sequence, the figures for `O=C(O)c1cnn(-c2nc3ccc(-c4cccc(F)c4)cc3c(=O)[nH]2)c1` [Example 196, 1-[6-(3-Fluoro-phenyl)-4-oxo-3,4-dihydro-quinazolin-2-yl]-1H-pyrazole-4-carboxylic acid] were 39.8 nM and 92%.
Taken in the same sequence, the figures for `O=C(O)c1cnn(-c2nc3ccc(-c4ccc(F)cc4)cc3c(=O)[nH]2)c1` [Example 197, 1-[6-(4-Fluoro-phenyl)-4-oxo-3,4-dihydro-quinazolin-2-yl]-1H-pyrazole-4-carboxylic acid] were 20 nM and 108%.
Take `COc1ccccc1-c1ccc2nc(-n3cc(C(=O)O)cn3)[nH]c(=O)c2c1` [Example 198, 1-[6-(2-Methoxy-phenyl)-4-oxo-3,4-dihydro-quinazolin-2-yl]-1H-pyrazole-4-carboxylic acid]: the IC50 on human PHD2 (PHD2181-417) was 20 nM. The Emax at 100 µM in the series with Hep-3B cells came out at 178%.
Taken in the same sequence, the figures for `COc1cccc(-c2ccc3nc(-n4cc(C(=O)O)cn4)[nH]c(=O)c3c2)c1` [Example 199, 1-[6-(3-Methoxy-phenyl)-4-oxo-3,4-dihydro-quinazolin-2-yl]-1H-pyrazole-4-carboxylic acid] were 25.1 nM and 119%.
Taken in the same sequence, the figures for `COc1ccc(-c2ccc3nc(-n4cc(C(=O)O)cn4)[nH]c(=O)c3c2)cc1` [Example 200, 1-[6-(4-Methoxy-phenyl)-4-oxo-3,4-dihydro-quinazolin-2-yl]-1H-pyrazole-4-carboxylic acid] were 15.8 nM and 118%.
For `O=C(O)c1cnn(-c2nc3ccc(-c4ccccc4C(F)(F)F)cc3c(=O)[nH]2)c1` [Example 201, 1-[4-Oxo-6-(2-trifluoromethyl-phenyl)-3,4-dihydro-quinazolin-2-yl]-1H-pyrazole-4-carboxylic acid], on human PHD2 (PHD2181-417), the IC50 was 25.1 nM. Further, in the series with Hep-3B cells, the Emax at 100 µM came to 78%.
Taken in the same sequence, the figures for `O=C(O)c1cnn(-c2nc3ccc(-c4ccccc4OC(F)(F)F)cc3c(=O)[nH]2)c1` [Example 202, 1-[4-Oxo-6-(2-trifluoromethoxy-phenyl)-3,4-dihydro-quinazolin-2-yl]-1H-pyrazole-4-carboxylic acid] were 15.8 nM and 29%.
Taken in the same sequence, the figures for `CCc1ccccc1-c1ccc2nc(-n3cc(C(=O)O)cn3)[nH]c(=O)c2c1` [Example 203, 1-[6-(2-Ethyl-phenyl)-4-oxo-3,4-dihydro-quinazolin-2-yl]-1H-pyrazole-4-carboxylic acid] were 31.6 nM and 77%.
For the compound `O=C(O)c1cnn(-c2nc3ccc(-c4cccc5c4OCCO5)cc3c(=O)[nH]2)c1` [Example 204, 1-[6-(2,3-Dihydro-benzo[1,4]dioxin-5-yl)-4-oxo-3,4-dihydro-quinazolin-2-yl]-1H-pyrazole-4-carboxylic acid], the IC50 on human PHD2 (PHD2181-417) is 15.8 nM. Besides, in the series with Hep-3B cells, the Emax at 100 µM came out at 111%.
Take `O=C(O)c1cnn(-c2nc3ccc(-c4cccc(OC(F)(F)F)c4)cc3c(=O)[nH]2)c1` [Example 205, 1-[4-Oxo-6-(3-trifluoromethoxy-phenyl)-3,4-dihydro-quinazolin-2-yl]-1H-pyrazole-4-carboxylic acid]: the IC50 on human PHD2 (PHD2181-417) was 25.1 nM. Besides, in the series on Hep-3B cells, the Emax at 100 µM came out at 58%.
`CS(=O)(=O)c1cccc(-c2ccc3nc(-n4cc(C(=O)O)cn4)[nH]c(=O)c3c2)c1` [Example 206, 1-[6-(3-Methanesulfonyl-phenyl)-4-oxo-3,4-dihydro-quinazolin-2-yl]-1H-pyrazole-4-carboxylic acid]: on human PHD2 (PHD2181-417), the IC50 is 25.1 nM. Further, in the series on Hep-3B cells, the Emax at 100 µM stood at 13%.
Regarding `O=C(O)c1cnn(-c2nc3ccc(-c4ccc5c(c4)OCO5)cc3c(=O)[nH]2)c1` [Example 207, 1-(6-Benzo[1,3]dioxol-5-yl-4-oxo-3,4-dihydro-quinazolin-2-yl)-1H-pyrazole-4-carboxylic acid], the IC50 at human PHD2 (PHD2181-417) was 25.1 nM. Also, the Emax at 100 µM in the series on Hep-3B cells came out at 84%.
Taken in the same sequence, the figures for `O=C(O)c1cnn(-c2nc3cc(I)ccc3c(=O)[nH]2)c1` [Example 208, 1-(7-Iodo-4-oxo-3,4-dihydro-quinazolin-2-yl)-1H-pyrazole-4-carboxylic acid] were 126 nM and 20%.
